Results as given in US20040138199A1, “Benzoxazines and derivatives thereof as therapeutic agents” (priority 2002, published 2004).

Biological target: T1, p101/p110γ protein (PI3Kγ) (Homo sapiens, UniProt P48736)
T1 construct: HA; made in house; host or cells: Spodoptera frugiperda (Sf9) cells, baculovirus coinfection
Assay: PI3Kγ In Vitro Kinase Assay
Type: biochemical
Conditions: purified recombinant p101/p110γ with G protein β1/γ2 subunits; 20 μM ATP, 25 μM PIP2; 20 minutes at room temperature; radioactive PIP3 readout
Outline: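 Baculovirus/Sf9-expressed p101/p110γ (~2.7 nM) with G protein β1/γ2, 20 μM ATP plus [γ-32P]ATP, PIP2/PE micelles (25 μM PIP2, 300 μM PE, 10 mM MgCl2) in HEPES buffer. Reaction 20 min at room temperature, stopped with H3PO4; radiolabelled PIP3 counted on filters to derive IC50 (μM).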

T1 sequence (P48736 whole entry, species assumed): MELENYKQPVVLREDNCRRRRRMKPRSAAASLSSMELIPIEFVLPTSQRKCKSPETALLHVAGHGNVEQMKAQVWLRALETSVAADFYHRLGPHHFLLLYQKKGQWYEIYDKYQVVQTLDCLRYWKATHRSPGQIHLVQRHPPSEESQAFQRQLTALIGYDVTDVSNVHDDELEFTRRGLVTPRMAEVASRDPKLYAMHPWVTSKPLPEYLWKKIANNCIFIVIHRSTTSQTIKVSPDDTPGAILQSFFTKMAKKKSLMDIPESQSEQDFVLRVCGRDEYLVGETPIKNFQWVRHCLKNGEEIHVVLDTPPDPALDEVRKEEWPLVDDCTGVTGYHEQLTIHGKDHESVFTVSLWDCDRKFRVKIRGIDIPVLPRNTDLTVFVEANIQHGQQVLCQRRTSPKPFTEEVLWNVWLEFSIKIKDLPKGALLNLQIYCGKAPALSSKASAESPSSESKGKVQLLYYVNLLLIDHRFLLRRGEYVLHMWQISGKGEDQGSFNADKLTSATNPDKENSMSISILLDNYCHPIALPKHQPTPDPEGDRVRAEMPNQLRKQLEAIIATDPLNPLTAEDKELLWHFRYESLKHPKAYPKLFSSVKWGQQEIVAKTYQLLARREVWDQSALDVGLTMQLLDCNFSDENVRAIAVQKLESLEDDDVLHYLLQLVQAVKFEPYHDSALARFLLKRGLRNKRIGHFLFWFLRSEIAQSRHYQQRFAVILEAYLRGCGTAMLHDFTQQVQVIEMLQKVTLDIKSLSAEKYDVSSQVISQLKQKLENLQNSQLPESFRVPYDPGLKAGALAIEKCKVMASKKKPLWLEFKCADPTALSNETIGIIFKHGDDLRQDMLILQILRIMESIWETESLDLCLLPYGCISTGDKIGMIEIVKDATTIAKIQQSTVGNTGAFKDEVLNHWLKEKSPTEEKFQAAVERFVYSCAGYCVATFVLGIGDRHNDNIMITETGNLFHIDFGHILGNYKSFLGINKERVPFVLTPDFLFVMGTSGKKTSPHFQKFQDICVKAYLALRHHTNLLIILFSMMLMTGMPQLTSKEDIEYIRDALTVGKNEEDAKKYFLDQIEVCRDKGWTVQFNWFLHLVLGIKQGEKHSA
T1 sequence (Q8WYR1 whole entry partner, species assumed): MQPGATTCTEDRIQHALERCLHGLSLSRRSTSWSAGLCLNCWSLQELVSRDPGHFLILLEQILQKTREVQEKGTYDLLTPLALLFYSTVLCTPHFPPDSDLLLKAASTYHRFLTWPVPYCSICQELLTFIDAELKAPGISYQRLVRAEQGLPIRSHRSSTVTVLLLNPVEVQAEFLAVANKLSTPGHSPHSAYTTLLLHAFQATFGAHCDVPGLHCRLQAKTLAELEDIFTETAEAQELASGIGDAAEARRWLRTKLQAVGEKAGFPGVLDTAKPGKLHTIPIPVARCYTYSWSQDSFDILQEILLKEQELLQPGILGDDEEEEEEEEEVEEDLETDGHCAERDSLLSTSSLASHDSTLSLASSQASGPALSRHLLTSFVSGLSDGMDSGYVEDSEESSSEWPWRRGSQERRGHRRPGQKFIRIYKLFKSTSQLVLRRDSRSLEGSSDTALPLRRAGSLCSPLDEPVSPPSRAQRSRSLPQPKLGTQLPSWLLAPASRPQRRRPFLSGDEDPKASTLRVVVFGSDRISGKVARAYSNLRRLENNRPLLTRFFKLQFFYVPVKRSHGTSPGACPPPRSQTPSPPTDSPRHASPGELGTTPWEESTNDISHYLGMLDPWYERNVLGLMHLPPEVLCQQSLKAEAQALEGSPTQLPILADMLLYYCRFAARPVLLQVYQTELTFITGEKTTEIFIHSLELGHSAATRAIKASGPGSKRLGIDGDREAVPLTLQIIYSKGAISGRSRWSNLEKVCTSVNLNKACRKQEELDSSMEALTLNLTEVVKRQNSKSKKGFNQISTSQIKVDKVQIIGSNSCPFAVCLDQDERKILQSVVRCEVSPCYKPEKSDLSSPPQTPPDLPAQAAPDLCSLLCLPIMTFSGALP

| IC50 | Compound |
| --- | --- |
| 1.53 µM | O=C1NC(=S)SC1=Cc1ccc2c(c1)N(C(=O)c1ccc3nonc3c1)CCCO2 [Example 116, 5-[9-(Benzofurazan-5-carbonyl)-6,7,8,9-tetrahydro-5-oxa-9-aza-benzocyclohepten-2-ylmethylene]-2-thioxo-thiazolidin-4-one] |
| 1.32 µM | 2-(4-Oxo-2-thioxo-thiazolidin-5-ylidenemethyl)-7,8-dihydro-6H-5-oxa-9-aza-benzocycloheptene-9-carboxylic acid (3,5-dimethoxy-phenyl)-amide [Example 113] |
| 4 µM | CCCCCCCCNC(=O)N1CCOc2ccc(C=C3SC(=S)NC3=O)cc21 [Example 62, 6-(4-Oxo-2-thioxo-thiazolidin-5-ylidenemethyl)-2,3-dihydro-1,4-benzoxazine-4-carboxylic acid octylamide] |

Second part, the compound before the results:

| Compound | IC50 |
| --- | --- |
| O=C1NC(=S)SC1=Cc1ccc2c(c1)N(C(=O)Cc1ccccc1)CCO2 [Example 19, 5-(4-Phenylacetyl-3,4-dihydro-2H-1,4-benzoxazin-6-ylmethylene)-2-thioxo-thiazolidin-4-one] | 0.055 µM |
| 5-[9-(2-Thiophen-2-yl-acetyl)-6,7,8,9-tetrahydro-5-oxa-9-aza-benzocyclohepten-2-ylmethylene]-2-thioxo-thiazolidin-4-one [Example 112] | 1.14 µM |
| CC1COc2ccc(C=C3SC(=S)NC3=O)cc2N1C(=O)c1ccccc1 (stereo not shown) [Example 8, 5-[3-Methyl-4-(-phenyl-methanoyl)-3,4-dihydro-2H-benzo[1,4]oxazine-6-ylmethylene]-2-thioxo-thiazolidin-4-one] | 2.18 µM |
| O=C1NC(=S)SC1=Cc1ccc2c(c1)N(C(=O)COCc1ccccc1)CCO2 [Example 39, 5-[4-(2-Benzyloxy-acetyl)-3,4-dihydro-2H-1,4-benzoxazin-6-ylmethylene]-2-thioxo-thiazolidin-4-one] | 0.014 µM |
